Reference: patent US20250129123A1, “BIOMIMETIC PEPTIDES AND THEIR USE IN BONE REGENERATION” (SILK BIOMATERIALS S.R.L., priority 2021, published 2025)
Ends that are not written are not given here.

What was measured:
[1] = Mineralization test (von Kossa staining) of fibroin foams in complete medium in the absence of cells; conditions: absence of MSC (NO MSC), 7 days
Procedure: (§1) Human mesenchymal stem cells (MSCs) were purchased from Lonza and cultured in Dulbecco's Modified Eagle's Medium (DMEM), supplemented with 10% MSC Stimulatory Supplement, 100 U/mL penicillin-streptomycin and non-essential amino acids at 37° C. in a fully humidified atmosphere at 5% CO2. The fibroin foams were placed in a 96-well plate, immersed in 70% ethanol for 30 minutes, washed in phosphate buffered saline (PBS) three times, immersed in 100 U/mL penicillin-streptomycin overnight and washed three times in PBS. MSC (10^4/50 μL) were seeded by pipetting onto different points of the foam to improve the distribution of the cells within the foam and allowed to adhere for 30 minutes. Subsequently, 150 μL of complete medium were added to each well. As a negative control, the fibroin foams were kept in the complete cell-free medium. The medium was changed every two days.
(§2) The foams were washed twice with PBS (not containing magnesium/calcium ions) before cell lysis and protein extraction. Cell lysis was performed using the HEPES buffer (50 mM HEPES, pH 7.4, 150 mM NaCl, 10% (v/v) glycerol, 1% (v/v) Triton X-100, 1.5 mM MgCl2, 1 mM EGTA) containing 100 mM NaF, 1 mM NaVO4, 1 μg/mL leupeptin, and 1 μg/mL aprotinin. After 30 minutes on ice, the extracts were centrifuged for 10 minutes at 13,000 g as cell lysate and stored at −20° C. The remaining deposited matrix was washed twice with PBS (not containing magnesium/calcium ions). To fix the matrix on the fibroin foams […] was added in ultrapure water at room temperature for 10 minutes and then two washes with ultrapure water were performed. […]
(§3) The human mesenchymal stem cells (MSCs) were cultured for 7 days in the fibroin foams functionalized with the biomimetic peptides, using a non-functionalized fibroin foam as a reference. […] The extent of calcium deposit was studied by means of von Kossa staining and quantified by image analysis with ImageJ software. […] The threshold was adjusted manually, and the percentage area covered by the signal above the threshold was measured.

[2] = system: human mesenchymal stem cells (MSCs); test: Mineralization test (von Kossa staining) of fibroin foams incubated with human mesenchymal stem cells; assay type: cell-based; conditions: presence of MSC (+MSC), complete medium, 7 days, decellularized foams
Procedure: as §1, §2, §3

[3] = SEM/EDX chemical characterization of fibroin foams incubated in SBF; conditions: fibroin foam functionalized with peptide, 14 days, aggregates "Object 10437"
Procedure: […]
The fibroin foam samples were analysed in SEM/EDX in order to morphologically and compositionally identify the mineral formations constituted by calcium and phosphate salts.

| Sequence | amount of deposited calcium (percentage area covered by von Kossa staining) versus non-functionalized foam [1] | amount of deposited calcium (percentage area covered by von Kossa staining) versus non-functionalized foam [2] | chemical composition of the crystalline aggregates (SEM/EDX) [3] |
| --- | --- | --- | --- |
| GPYVAHGGYSGYEY | always higher | always higher |  |
| SGYEYAWSSESDF | always higher | always higher |  |
| VNGGYSGYEYAW | always higher | always higher | intense signals of calcium (Ca) and phosphorus (P) |
